The text below walks through data of patent publication US11814367B2, “Inhibitors of glycogen synthase 1 (GYS1) and methods of use thereof” (Maze Therapeutics, Inc., priority 2021, dated 2023).

Assay [1] concerns the target hGYS2 enzyme (recombinant hGYS2/GN1 protein) (Homo sapiens (Human), UniProt P54840). The assay can be described thus: GYS2 coupled enzyme assay (PK/LDH). The format is biochemical. To be noted: geometric mean of at least 2 assay runs on separate days, read-out: Avg_IC50. A digest of the protocol: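 Read-out: NADH loss at 340 nm, read each minute for 10 min, slope normalized to controls, duplicate % inhibition fit to Hill (0–100). Enzyme: 200 nM hGYS2/GN1; substrate 2 mM UDP-glucose plus 0.2% glycogen and 2 mM G6P; pH 7.5 Tris, 2.5% DMSO.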

Assay [2] has as its target hGYS1 enzyme (recombinant hGYS1/GN1 protein) (Homo sapiens (Human), UniProt P13807). The assay can be described thus: GYS1 coupled enzyme assay (PK/LDH). Format: biochemical. The note with it: hGYS1/GN1 50 nM, UDP-Glucose 0.8 mM, G6P 1 mM; geometric mean of at least 2 runs.
Assay [3] relates to hGYS1 enzyme / glycogen synthesis in HeLa cells. Briefly: GYS1 cell based assay (glycogen synthesis, Glucose-glo). More on the design: species or system human. To be noted: Homo sapiens, HeLa, 24 h, 24 h incubation, 20 mM glucose, geometric mean of at least 2 runs. The gist of the method: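 HeLa cells starved 24 h in medium containing only 1× Glutamax were plated onto compound in medium with 20 mM glucose (1% DMSO final) for 24 h, 37 °C, 5% CO2. Acid lysates were Tris-quenched, glucoamylase-digested (pH 5.3, 1 h, 37 °C) and read by Glucose-glo luminescence. IC50 came from Hill fits, as geometric mean of ≥2 runs.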

pIC50: −log10 of the molar value.

Sequence of hGYS1 enzyme (recombinant hGYS1/GN1 protein) (P13807 whole entry): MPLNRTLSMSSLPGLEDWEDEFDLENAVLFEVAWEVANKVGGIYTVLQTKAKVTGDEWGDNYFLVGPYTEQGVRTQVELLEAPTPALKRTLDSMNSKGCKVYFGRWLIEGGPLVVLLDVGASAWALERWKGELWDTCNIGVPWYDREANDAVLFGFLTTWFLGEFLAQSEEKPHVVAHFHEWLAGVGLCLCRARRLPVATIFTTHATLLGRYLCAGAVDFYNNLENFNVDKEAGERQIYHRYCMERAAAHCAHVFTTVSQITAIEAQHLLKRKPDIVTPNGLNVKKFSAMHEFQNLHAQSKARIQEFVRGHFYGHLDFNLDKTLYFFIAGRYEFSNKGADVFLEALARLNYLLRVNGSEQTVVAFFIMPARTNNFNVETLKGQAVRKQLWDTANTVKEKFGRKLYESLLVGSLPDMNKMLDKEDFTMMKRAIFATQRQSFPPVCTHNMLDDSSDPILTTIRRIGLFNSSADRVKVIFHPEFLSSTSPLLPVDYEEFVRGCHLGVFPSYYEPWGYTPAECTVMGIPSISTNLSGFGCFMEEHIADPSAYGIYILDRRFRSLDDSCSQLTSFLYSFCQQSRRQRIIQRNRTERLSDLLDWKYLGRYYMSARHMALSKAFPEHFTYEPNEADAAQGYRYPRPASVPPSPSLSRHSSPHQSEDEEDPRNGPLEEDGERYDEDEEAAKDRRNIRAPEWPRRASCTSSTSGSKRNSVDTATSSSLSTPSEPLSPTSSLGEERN
Sequence of hGYS1 enzyme (recombinant hGYS1/GN1 protein) (P46976 whole entry partner): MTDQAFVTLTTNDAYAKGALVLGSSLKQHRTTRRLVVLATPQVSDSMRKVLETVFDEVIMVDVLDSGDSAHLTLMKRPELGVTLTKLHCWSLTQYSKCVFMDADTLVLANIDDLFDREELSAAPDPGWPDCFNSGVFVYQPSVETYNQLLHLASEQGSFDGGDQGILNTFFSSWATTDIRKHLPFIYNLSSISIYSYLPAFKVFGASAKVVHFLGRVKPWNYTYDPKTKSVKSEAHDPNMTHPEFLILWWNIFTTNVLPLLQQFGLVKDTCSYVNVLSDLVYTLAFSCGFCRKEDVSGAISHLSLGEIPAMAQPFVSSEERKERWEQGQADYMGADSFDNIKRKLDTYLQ
Sequence of hGYS2 enzyme (recombinant hGYS2/GN1 protein) (P54840 whole entry): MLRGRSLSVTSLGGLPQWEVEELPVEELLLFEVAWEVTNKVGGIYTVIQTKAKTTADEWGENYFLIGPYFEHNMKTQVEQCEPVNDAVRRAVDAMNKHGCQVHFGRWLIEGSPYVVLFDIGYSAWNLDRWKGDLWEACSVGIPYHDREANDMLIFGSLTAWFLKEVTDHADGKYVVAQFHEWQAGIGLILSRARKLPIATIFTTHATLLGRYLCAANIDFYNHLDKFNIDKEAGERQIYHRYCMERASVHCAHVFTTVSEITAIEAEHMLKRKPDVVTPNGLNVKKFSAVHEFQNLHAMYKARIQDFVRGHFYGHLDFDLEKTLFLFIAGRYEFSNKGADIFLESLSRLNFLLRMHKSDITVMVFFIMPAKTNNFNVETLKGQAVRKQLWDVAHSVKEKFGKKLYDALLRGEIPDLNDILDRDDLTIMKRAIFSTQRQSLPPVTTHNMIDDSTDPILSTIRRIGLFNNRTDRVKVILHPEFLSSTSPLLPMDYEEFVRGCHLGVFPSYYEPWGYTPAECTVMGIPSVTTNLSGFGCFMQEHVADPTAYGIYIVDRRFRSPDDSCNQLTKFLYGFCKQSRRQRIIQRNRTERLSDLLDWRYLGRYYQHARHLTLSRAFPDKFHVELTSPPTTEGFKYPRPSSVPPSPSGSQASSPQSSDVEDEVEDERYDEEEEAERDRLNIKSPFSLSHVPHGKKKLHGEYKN
Sequence of hGYS2 enzyme (recombinant hGYS2/GN1 protein) (P46976 whole entry partner): as the sequence (P46976 whole entry partner) above

`CC(C)c1ccc([C@@H](NC(=O)[C@@H]2C[C@@H](F)CN2C(=O)Cc2cnn(C)c2)c2ccccc2)cc1F` [Compound 355, (2S,4R)-4-fluoro-N-[(S)-[3-fluoro-4-(propan-2-yl)phenyl](phenyl)methyl]-1-[2-(1-methyl-1H-pyrazol-4-yl)acetyl]pyrrolidine-2-carboxamide]: the results for the pIC50 in assay [1], in assay [2] and in assay [3] were less than 4.00, 7.74 and 6.80, respectively.
On to `CC(C)c1ccc([C@@H](NC(=O)[C@@H]2C[C@@H](F)CN2C(=O)Cc2cnc3ccccn23)c2ccccc2)cc1F` [Compound 356, (2S,4R)-4-fluoro-N-[(S)-[3-fluoro-4-(propan-2-yl)phenyl](phenyl)methyl]-1-(2-{imidazo[1,2-a]pyridin-3-yl}acetyl)pyrrolidine-2-carboxamide], for which the pIC50 in assay [1] was less than 4.00; in assay [2] it was 7.89; in assay [3], 6.72.
For the compound `CC(C)c1ccc([C@@H](NC(=O)[C@@H]2C[C@@H](F)CN2C(=O)Cc2ccc3ncccc3c2)c2ccccc2)cc1F` [Compound 357, (2S,4R)-4-fluoro-N-[(S)-[3-fluoro-4-(propan-2-yl)phenyl](phenyl)methyl]-1-[2-(quinolin-6-yl)acetyl]pyrrolidine-2-carboxamide], the pIC50 in assay [1] was less than 4.00; in assay [2], 7.68; in assay [3] it was 6.66.
Consider `CC(C)c1ccc([C@@H](NC(=O)[C@@H]2C[C@@H](F)CN2C(=O)Cc2ccc3ncnn3c2)c2ccccc2)cc1F` [Compound 358, (2S,4R)-4-fluoro-N-[(S)-[3-fluoro-4-(propan-2-yl)phenyl](phenyl)methyl]-1-(2-{[1,2,4]triazolo[1,5-a]pyridin-6-yl}acetyl)pyrrolidine-2-carboxamide], for which the pIC50 in assay [1] was less than 4.00; in assay [2] it was 7.96; in assay [3] it was 6.72.
Take `CC(C)c1ccc([C@@H](NC(=O)[C@@H]2C[C@@H](F)CN2C(=O)Cn2nnnc2C(F)(F)F)c2ccccc2)cc1F` [Compound 359]: the pIC50 was less than 4.00 in assay [1], 7.20 in assay [2] and 6.02 in assay [3].
For the compound `CC(C)c1ccc([C@@H](NC(=O)[C@@H]2C[C@@H](F)CN2C(=O)COC(=O)N(C)C)c2ccccc2)cc1F` [Compound 360, 2-[(2S,4R)-4-fluoro-2-{[(S)-[3-fluoro-4-(propan-2-yl)phenyl](phenyl)methyl]carbamoyl}pyrrolidin-1-yl]-2-oxoethyl N,N-dimethylcarbamate], the pIC50 in assay [1] was less than 4.00; in assay [2], 7.72; in assay [3], 6.51.
Regarding `CC(C)c1ccc([C@@H](NC(=O)[C@@H]2C[C@@H](F)CN2C(=O)CN(C)C(=O)N(C)C)c2ccccc2)cc1F` [Compound 362, (2S,4R)-1-{2-[(dimethylcarbamoyl) (methyl)amino]acetyl}-4-fluoro-N-[(S)-[3-fluoro-4-(propan-2-yl)phenyl](phenyl)methyl] pyrrolidine-2-carboxamide], the pIC50 in assay [1] was less than 4.00; in assay [2] it was 7.05; in assay [3] it was 5.94.
Take `CC(C)c1ccc([C@@H](NC(=O)[C@@H]2C[C@@H](F)CN2C(=O)COC(=O)N2CCNCC2)c2ccccc2)cc1F` [Compound 363, 2-[(2S,4R)-4-fluoro-2-{[(S)-[3-fluoro-4-(propan-2-yl)phenyl](phenyl)methyl]carbamoyl}pyrrolidin-1-yl]-2-oxoethyl piperazine-1-carboxylate]: the pIC50 is less than 4.00 in assay [1], 7.72 in assay [2] and 6.49 in assay [3].
On to `CC(C)c1ccc([C@@H](NC(=O)[C@@H]2C[C@@H](F)CN2C(=O)COC(=O)N2CCN(C(=O)OC(C)(C)C)CC2)c2ccccc2)cc1F` [Compound 364, 1-tert-butyl 4-{2-[(2S,4R)-4-fluoro-2-{[(S)-[3-fluoro-4-(propan-2-yl)phenyl](phenyl)methyl]carbamoyl}pyrrolidin-1-yl]-2-oxoethyl} piperazine-1,4-dicarboxylate], for which the pIC50 in assay [1] is less than 4.00; in assay [2], 7.10; in assay [3] it was 6.32.
With `CC(C)c1ccc([C@@H](NC(=O)[C@@H]2C[C@@H](F)CN2C(=O)CNC(=O)N2CCNCC2)c2ccccc2)cc1F` [Compound 365, N-{2-[(2S,4R)-4-fluoro-2-{[(S)-[3-fluoro-4-(propan-2-yl)phenyl](phenyl)methyl]carbamoyl}pyrrolidin-1-yl]-2-oxoethyl}piperazine-1-carboxamide], the pIC50 in assay [1] is less than 4.00; in assay [2] it was 8.15; in assay [3], 5.92.
Regarding `Cc1nn[nH]c1CC(=O)N1C[C@H](F)C[C@H]1C(=O)N[C@@H](c1ccccc1)c1ccc(C(C)C)c(F)c1` [Compound 367, (2S,4R)-4-fluoro-N-[(S)-[3-fluoro-4-(propan-2-yl)phenyl](phenyl)methyl]-1-[2-(4-methyl-1H-1,2,3-triazol-5-yl)acetyl]pyrrolidine-2-carboxamide], the pIC50 in assay [1] was less than 4.00; in assay [2], 7.80; in assay [3], 6.33.
Regarding `CC(C)c1ccc([C@@H](NC(=O)[C@@H]2C[C@@H](F)CN2C(=O)Cc2[nH]nnc2C(F)(F)F)c2ccccc2)cc1F` [Compound 368, (2S,4R)-4-fluoro-N-[(S)-[3-fluoro-4-(propan-2-yl)phenyl](phenyl)methyl]-1-{2-[4-(trifluoromethyl)-1H-1,2,3-triazol-5-yl]acetyl}pyrrolidine-2-carboxamide], the pIC50 is less than 4.08 in assay [1], 8.30 in assay [2] and 6.82 in assay [3].
Turning to `CC(C)c1ccc([C@@H](NC(=O)[C@@H]2C[C@@H](F)CN2C(=O)Cc2[nH]nnc2N2CCNCC2)c2ccccc2)cc1F` [Compound 369, (2S,4R)-4-fluoro-N-[(S)-[3-fluoro-4-(propan-2-yl)phenyl](phenyl)methyl]-1-{2-[4-(piperazin-1-yl)-1H-1,2,3-triazol-5-yl]acetyl}pyrrolidine-2-carboxamide], the pIC50 in assay [1] is less than 4.00; in assay [2], 6.27; in assay [3] it was less than 4.52.
As for `CC(C)c1ccc([C@@H](NC(=O)[C@@H]2C[C@@H](F)CN2C(=O)Cc2[nH]nnc2N2CCOCC2)c2ccccc2)cc1F` [Compound 371, (2S,4R)-4-fluoro-N-[(S)-[3-fluoro-4-(propan-2-yl)phenyl](phenyl)methyl]-1-{2-[4-(morpholin-4-yl)-1H-1,2,3-triazol-5-yl]acetyl}pyrrolidine-2-carboxamide], the pIC50 in assay [1] was less than 4.00; in assay [2], 6.46; in assay [3] it was 5.41.
Turning to `CC(C)c1ccc([C@@H](NC(=O)[C@@H]2C[C@@H](F)CN2C(=O)Cn2cc(C(F)(F)F)nn2)c2ccccc2)cc1F` [Compound 372, (2S,4R)-4-fluoro-N-[(S)-[3-fluoro-4-(propan-2-yl)phenyl](phenyl)methyl]-1-{2-[4-(trifluoromethyl)-1H-1,2,3-triazol-1-yl]acetyl}pyrrolidine-2-carboxamide], the values for the pIC50 in assay [1], in assay [2] and in assay [3] were less than 4.00, 7.44 and 5.96, respectively.
With `Cc1cn(CC(=O)N2C[C@H](F)C[C@H]2C(=O)N[C@@H](c2ccccc2)c2ccc(C(C)C)c(F)c2)nn1` [Compound 373, (2S,4R)-4-fluoro-N-[(S)-[3-fluoro-4-(propan-2-yl)phenyl](phenyl)methyl]-1-[2-(4-methyl-1H-1,2,3-triazol-1-yl)acetyl]pyrrolidine-2-carboxamide], the pIC50 in assay [1] is less than 4.00; in assay [2] it was 7.85; in assay [3], 6.68.
The matching figures for `Cc1cnnn1CC(=O)N1C[C@H](F)C[C@H]1C(=O)N[C@@H](c1ccccc1)c1ccc(C(C)C)c(F)c1` [Compound 374, (2S,4R)-4-fluoro-N-[(S)-[3-fluoro-4-(propan-2-yl)phenyl](phenyl)methyl]-1-[2-(5-methyl-1H-1,2,3-triazol-1-yl)acetyl]pyrrolidine-2-carboxamide]: less than 4.00, 7.66 and 6.44.
With `CC(C)c1ccc([C@@H](NC(=O)[C@@H]2C[C@@H](F)CN2C(=O)Cn2cc(N3CCNCC3)nn2)c2ccccc2)cc1F` [Compound 375, (2S,4R)-4-fluoro-N-[(S)-[3-fluoro-4-(propan-2-yl)phenyl](phenyl)methyl]-1-{2-[4-(piperazin-1-yl)-1H-1,2,3-triazol-1-yl]acetyl}pyrrolidine-2-carboxamide], the pIC50 is less than 4.11 in assay [1], 8.22 in assay [2] and 6.24 in assay [3].
The matching figures for `CC(C)c1ccc([C@@H](NC(=O)[C@@H]2C[C@@H](F)CN2C(=O)Cn2cc(N(C)C)nn2)c2ccccc2)cc1F` [Compound 377, (2S,4R)-1-{2-[4-(dimethylamino)-1H-1,2,3-triazol-1-yl]acetyl}-4-fluoro-N-[(S)-[3-fluoro-4-(propan-2-yl)phenyl](phenyl)methyl] pyrrolidine-2-carboxamide]: less than 4.00, 7.92 and 6.85.
For `CC(C)c1ccc([C@@H](NC(=O)[C@@H]2C[C@@H](F)CN2C(=O)Cn2ncc(N(C)C)n2)c2ccccc2)cc1F` [Compound 378, (2S,4R)-1-{2-[4-(dimethylamino)-2H-1,2,3-triazol-2-yl]acetyl}-4-fluoro-N-[(S)-[3-fluoro-4-(propan-2-yl)phenyl](phenyl)methyl] pyrrolidine-2-carboxamide], the pIC50 was less than 4.00 in assay [1], 8.22 in assay [2] and 6.77 in assay [3].
